Data set [1] addresses T1, APT1 (Homo sapiens, UniProt O75608).
T1 construct: His-tag; made in house; host or cells: E. coli ROSETTA DE3
Put plainly: In vitro kinetic assays and emission spectra of DPP-1, DPP-4, DPP-5 with APT1 (no detergent). The data set is classed as biochemical. How it is done: (§1) 150 μL of 2 μM DPP-1, DPP4 or DPP-5 in HEPES (20 mM, pH=7.4, 150 mM NaCl) were added to a 96-well optical bottom plate (Nunc 265301, Fisher Scientific, Pittsburgh, Pa., United States of America) at room temperature. 150 μL of either HEPES buffer alone or HEPES buffer containing 100 nM APT1 or APT2 (purification using previous methods), was added using a multi-channel pipette, resulting in a final concentration of 1 μM DPP-1/DPP4/DPP-5 and 50 nM APT1 or APT2. Fluorescence intensities (λex 490/20 nm, λem 545/20 nm, Gain 80, read from bottom with height 4.5 mm, and sweep method) were measured at 15 s time intervals for 30 min at 37° C. Following the 30 min kinetic run, emission spectra were obtained (λex 480/20 nm, Aem515-700 nm, Gain 80, read from bottom with height 4.5 mm, and sweep method).

Data set [2] addresses T2, APT2 (Homo sapiens, UniProt O95372).
T2 construct: His-tag; made in house; host or cells: E. coli ROSETTA DE3
Put plainly: In vitro kinetic assays and emission spectra of DPP-1, DPP-4, DPP-5 with APT2 (no detergent). In kind it is biochemical. On the procedure: as §1

Data set [3] concerns the target T1, APT1. Put plainly: Enzyme kinetics analysis of DPP-5 with APT1. In kind it is biochemical. To be noted: APT1 50 nM. On the procedure:
(§2) 150 μL of 1 M DTT in HEPES buffer was added to different concentrations of 150 μL DPP-5 and then the stable fluorescence intensities of totally deacylated product were measured by the methods described above. Fluorescence intensity of per molar deacylated-product was then calculated by linear least-squares fitting of plots of fluorescence vs. concentration. For Michaelis-Menten constant, in vitro kinetics curves were obtained for different final concentrations of DPP-5 in HEPES with 50 nM APT1 or APT2. The fluorescence intensities measured were then normalized to the concentrations of product by fluorescence-intensity-permolar-product. A Lineweaver-Burk plot was used to calculate the Michaelis constant, KM, and the maximum velocity, Vmax, which is proportional to kcat by concentration of APT1 or APT2. All fits have R^2 values of >0.99.

Data set [4] addresses T2, APT2. Put plainly: Enzyme kinetics analysis of DPP-5 with APT2. To be noted: APT2 50 nM. The data set is classed as biochemical. How it is done:
as §2

Data set [5] in a line: Log P analysis of DPP-1/4/5. The settings on record: 1-octanol / Hepes buffer. In kind it is physicochemical. How it is done: 2 μL of 1 mM of DPP-1/4/5 was dissolved in 500 μL of Hepes buffer in two 1.5 mL tubes. To one tube, 500 μL of 1-octanol was added and the tube was shaken for 10 min followed by keeping it undisturbed for 10 min. Then, 10 μL of aqueous phase from each tube was placed in a 96 well plate reader. To this, 190 μL of 1M NaOH was added and fluorescence intensities (λex 490/20 nm, λem 545/20 nm, Gain 80, read from bottom with height 4.5 mm, and sweep method) were measured at 15 second time intervals for 1 hr at room temperature. The fluorescence read out at saturation was used to calculate Log P values by following equation: log P=log(Foct/Faq) Foct=Ftotal−Faq where: Foct=Fluorescence of 1-octanol fraction; Faq=Fluorescence of the aqueous fraction after treatment with 1-octanol, and Ftotal=Fluorescence of the aqueous fraction with no treatment with 1-octanol.

Structures are written as SMILES.

The Km is the substrate concentration at which the rate is half of its maximum. Broadly, the LogP is a log measure of how a compound divides between an organic and an aqueous phase. Low values mean a more hydrophilic compound, high ones a more lipophilic compound.

T1 sequence (O75608 whole entry): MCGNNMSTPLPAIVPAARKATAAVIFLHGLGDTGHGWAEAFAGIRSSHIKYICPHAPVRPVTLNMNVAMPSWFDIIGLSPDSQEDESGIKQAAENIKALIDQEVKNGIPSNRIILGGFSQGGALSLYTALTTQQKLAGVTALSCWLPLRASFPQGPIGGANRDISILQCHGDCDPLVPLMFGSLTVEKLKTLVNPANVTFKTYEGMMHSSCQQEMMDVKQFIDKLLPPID
T2 sequence (O95372 whole entry): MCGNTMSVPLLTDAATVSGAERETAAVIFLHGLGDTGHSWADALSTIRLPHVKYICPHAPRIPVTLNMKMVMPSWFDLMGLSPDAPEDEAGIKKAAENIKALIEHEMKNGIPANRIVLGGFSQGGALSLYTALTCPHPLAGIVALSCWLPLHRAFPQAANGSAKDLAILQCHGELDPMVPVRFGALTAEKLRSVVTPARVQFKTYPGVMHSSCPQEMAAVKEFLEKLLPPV

Turning to `CCCCCCCCCCCCCCCC(=O)SC[C@@H](C(=O)NC)N(C)C(=O)Oc1ccc2c(c1)Oc1cc(N3CCN(C(=O)CCC(=O)O)CC3)ccc1C21OC(=O)c2ccccc21` (stereo partly drawn) [DPP-5], the “enhancement in intensity of fluorescence signal” value at APT1 [1] (1 μM probe, 50 nM APT1, 30 minutes, absence of detergents) stood at 350 fold; on APT2 [2] (1 μM probe, 50 nM APT2, 30 minutes, absence of detergents), 350 fold. The “in vitro kinetics” value at APT1 [1] (APT1, absence of detergents) was “more rapid turn-on response”; on APT2 [2] (APT2, absence of detergents), “more rapid turn-on response”. The Kcat amounted to 0.044 s⁻¹ at APT1 [3] and 0.066 s⁻¹ on APT2 [4]. The figures for the Michaelis constant (Km) on APT1 [3] (Lineweaver-Burk) and at APT2 [4] (Lineweaver-Burk) were 1.6 µM and 2.1 µM, respectively. In data set [5], the lipophilicity (LogP) is 0.79.

For the origin of these results see US10413583B2, “Synthetic substrates for enzymes that catalyze reactions of modified cysteines and related methods” (The University of Chicago, priority 2016, dated 2019).
